The record followed here is EP4768489A1, “CYCLOBUTYL-CONTAINING COMPOUNDS” (Chia Tai Tianqing Pharmaceutical Group Co., Ltd., priority 2023, dated 2025).

In one data set the target is T1, AR in VCaP cells (Homo sapiens, UniProt P10275).
T1 construct: Assay on degradation activity for AR in VCaP cells; endogenous in cells; host or cells: VCaP cells
T1 sequence (P10275 1-920): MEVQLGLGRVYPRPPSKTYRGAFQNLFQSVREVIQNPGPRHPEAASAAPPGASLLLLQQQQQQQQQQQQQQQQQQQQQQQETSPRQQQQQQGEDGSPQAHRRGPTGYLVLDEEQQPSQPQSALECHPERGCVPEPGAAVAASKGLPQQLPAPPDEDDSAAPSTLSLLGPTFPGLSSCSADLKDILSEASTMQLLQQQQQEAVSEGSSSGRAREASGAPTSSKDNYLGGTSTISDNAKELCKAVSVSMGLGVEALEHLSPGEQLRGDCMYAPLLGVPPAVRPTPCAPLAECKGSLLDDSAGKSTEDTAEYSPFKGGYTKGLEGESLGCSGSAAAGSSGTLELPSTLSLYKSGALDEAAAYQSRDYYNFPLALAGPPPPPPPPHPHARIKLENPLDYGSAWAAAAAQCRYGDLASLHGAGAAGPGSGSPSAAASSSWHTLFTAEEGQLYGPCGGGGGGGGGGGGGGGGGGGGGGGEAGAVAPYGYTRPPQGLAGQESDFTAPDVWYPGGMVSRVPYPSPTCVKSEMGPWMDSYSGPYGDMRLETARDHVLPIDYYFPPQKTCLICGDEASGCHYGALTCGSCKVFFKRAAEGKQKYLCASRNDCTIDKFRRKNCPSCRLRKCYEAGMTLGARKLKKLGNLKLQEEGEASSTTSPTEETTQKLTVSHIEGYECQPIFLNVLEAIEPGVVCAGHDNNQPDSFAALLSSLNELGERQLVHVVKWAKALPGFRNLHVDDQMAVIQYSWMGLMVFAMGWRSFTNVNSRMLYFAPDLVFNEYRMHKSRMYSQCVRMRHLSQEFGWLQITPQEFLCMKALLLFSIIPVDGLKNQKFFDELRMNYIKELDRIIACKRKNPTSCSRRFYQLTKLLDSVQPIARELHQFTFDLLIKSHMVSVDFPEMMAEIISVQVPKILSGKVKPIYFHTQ
Kind of data set: Assay on degradation activity for AR in VCaP cells (HTRF human androgen receptor detection kit). Format: cell-based. Particulars: 24 h; for DC50: AR degradation; for Dmax: maximum degradation rate. Here is the method:
(§1) The detection was carried out using the HTRF HUMAN ANDROGEN RECEPTOR DETECTION KIT (cisbio, 64ANDRPEG), 4× Supplemented Lysis buffer was prepared using the Blocking reagent stock solution (100×) and Lysis buffer stock solution (4×), and 1× Supplemented Lysis buffer was prepared using the 4× Supplemented Lysis buffer and ddH2O. Premixed antibody solutions were prepared using Detection buffer, Androgen Receptor Eu Cryptate antibody, and Androgen Receptor d2 antibody.
The cells were cultured overnight in a cell incubator. […] After the cells were oscillated for 40 min at room temperature, 16 µL of the cell lysis buffer was added to a 384-well plate, the Premixed antibody solutions were added at 4 µL/well, and the mixture was left to stand at 25 °C for 2 h. […] Table 1. Degradation activity of compounds for AR in VCaP cells
Background: Time-resolved FRET reads energy transfer from a long-lived donor to a nearby acceptor.

The target in data set [1] is T2, AR in MDA-PCA-2B (L702H\T878A) cells (Homo sapiens, UniProt P10275, L702H/T878A).
T2 construct: Assay on degradation activity for AR in MDA-PCA-2B (L702H\T878A) cells; endogenous in cells; host or cells: MDA-PCA-2B cells
T2 sequence (P10275 1-920 L702H/T878A): T1 sequence (P10275 1-920) with L702H, T878A
Kind of data set: Assay on degradation activity for AR in MDA-PCA-2B (L702H\T878A) cells (HTRF). The data set is classed as cell-based. The settings on record: 24 h; for DC50: AR degradation; for Dmax: maximum degradation rate. The protocol:
as §1
The cells were cultured overnight in a cell incubator. […] After the cells were oscillated for 40 min at room temperature, 16 µL of the cell lysis buffer was added to a 384-well plate, the Premixed antibody solutions were added at 4 µL/well, and the mixture was left to stand at 25 °C for 2 h. […]

Data set [2] is described as follows: In vitro liver microsome stability, human. Particulars: human liver microsomes 0.5 mg/mL, 37 °C, NADPH. Format: in vitro ADME. The protocol: (§2) Liver microsome incubation samples were prepared by mixing a PBS buffer (pH 7.4), a liver microsome solution (0.5 mg/mL), a test compound, and an NADPH + MgCl2 solution, followed by incubation at 37 °C and 300 rpm for 1 h. Zero-hour samples were prepared by mixing a PBS buffer (pH 7.4), a liver microsome solution (0.5 mg/mL), and a test compound. […]
(In general: Liver microsomes are a subcellular fraction often used to study metabolism.)

Data set [3] is described as follows: In vitro liver microsome stability, mouse. Format: in vitro ADME. The settings on record: mouse liver microsomes 0.5 mg/mL, 37 °C, NADPH. Here is the method:
as §2

The nature of a further data set: in vivo. Particulars: mouse.
The next data set can be described thus: Mouse pharmacokinetics. The settings on record: for F: Mouse i.g. (0-48 h), 10 mpk vs i.v. 1 mpk.
The subject of another data set is VCaP cells. Kind of data set: Assay on inhibitory activity for VCaP cell proliferation (CCK-8). The data set is classed as cell-based. Particulars: Homo sapiens, 168 h.
Setting [4] is: ICR, mouse, plasma, iv, 1 mg/kg.
Where [5] appears, read: ICR, mouse, plasma, po, 10 mg/kg.

The term DC50 denotes the midpoint of the concentration-degradation curve. A high value points to degradation only at high concentration. The term Dmax denotes the largest share of the target that was removed. Low readings indicate a partial loss of target, high ones a fuller loss of target. In general, AUC refers to concentration integrated over time. A higher AUC goes with more exposure. What is called Vd is a proportionality between amount in the body and measured concentration, not a real space. A low value points to little distribution into tissue. As usually defined, the clearance is the rate of elimination divided by the concentration. A higher clearance goes with a high capacity for elimination. As a reminder, the half-life is the time in which the quantity being followed falls by half. Low readings indicate rapid decline, high ones slow decline. The Cmax is the peak of the concentration-time curve. The IC50 is the concentration that inhibits the measured activity by half.

Numbering of substitutions follows the chain as printed.

Protocol for Mouse pharmacokinetics: (§3) ICR mice weighing 18-22 g were randomized into groups of 9 after 3-5 days of acclimatization. The mice in the intragastric administration group were intragastrically given the test compound solution at a dose of 10 mg/kg (20 mg/kg or 30 mg/kg), and the mice in the intravenous injection administration group were intravenously injected with the test compound solution at a dose of 1 mg/kg.
(§4) Blood was collected from the orbit to prepare plasma samples to be tested.
(§5) 30 µL of each of the plasma samples to be tested and a standard curve sample were taken, and an acetonitrile solution containing an internal standard was added. Supernatants were obtained by protein precipitation, diluted with a 1:1 (v:v) mixed solution of acetonitrile and water, and then assayed by LC/MS/MS. Data were fitted using a non-compartmental model.
Protocol for in vivo: as §3, §4, §5

At AR in VCaP cells, `COc1cc(O[C@H]2C(C)(C)[C@H](NC(=O)c3ccc(N4CCC(CN5Cc6ccc7c(C8CCC(=O)NC8=O)noc7c6C5)CC4)cc3)C2(C)C)ccc1C#N` (some centres unmarked) [Compound 8] registered a DC50 of less than 5 nM and a maximal degradation (Dmax) of more than 75%. Also, in data set [1], the half-maximal degradation concentration (DC50) was less than 500 nM and the Dmax is more than 70%. For the same compound, the “HLM (human) Remaining amount at 60 min %” value in data set [2] is on record as more than 70%. The “MLM (mouse) Remaining amount at 60 min %” value in data set [3] is more than 70%. In “in vivo” (iv, 1 mg/kg), this compound showed an AUC at 48 h of 20200 ng·h/mL, a Vd of 1.1 L/kg, a clearance of 0.7 mL/min/kg and a half-life of 18 h. Further, in “in vivo” (po, 10 mg/kg), the AUC at 48 h came to 77600 ng·h/mL, the Cmax is 2810 ng/mL and the half-life was 15 h. The F in the data set “Mouse pharmacokinetics” worked out at 37.00%.
Consider `COc1cc(O[C@H]2C(C)(C)[C@H](NC(=O)c3ccc(N4CCC(CN5CCc6ccc7c(C8CCC(=O)NC8=O)noc7c6C5)CC4)cc3)C2(C)C)ccc1C#N` (some centres unmarked) [Compound 9], for which, in data set [1], the DC50 was less than 500 nM and the greatest degradation seen (Dmax) was more than 70%. Also, in data set [2], the “HLM (human) Remaining amount at 60 min %” value is listed as more than 70%.
As for `COc1cc(O[C@H]2C(C)(C)[C@H](NC(=O)c3ccc(N4CCC(CN5CCc6ccc7c(C8CCC(=O)NC8=O)noc7c6CC5)CC4)cc3)C2(C)C)ccc1C#N` (some centres unmarked) [Compound 10], at AR in VCaP cells, the half-maximal degradation concentration (DC50) is less than 5 nM and the Dmax is more than 75%. In data set [1], this compound returned a DC50 of less than 500 nM and a Dmax of more than 70%. In addition, in the data set on VCaP cells, the IC50 is less than 2000 nM. Also, in data set [2], the “HLM (human) Remaining amount at 60 min %” value is listed as more than 70%. Also, in data set [3], the “MLM (mouse) Remaining amount at 60 min %” value was more than 70%. In the data set “in vivo” (iv, 1 mg/kg), this compound had an exposure (AUC) at 48 h of 5400 ng·h/mL, a Vd of 3.1 L/kg, a clearance of 2.83 mL/min/kg and a half-life of 13 h. In “in vivo” (po, 10 mg/kg), the exposure (AUC) at 48 h worked out at 16200 ng·h/mL, the highest level (Cmax) was 620 ng/mL and the half-life was 11 h. The compound also yielded a F in the data set “Mouse pharmacokinetics” of 30.00%.
Consider `COc1cc(O[C@H]2C(C)(C)[C@H](NC(=O)c3ccc(N4CCC(CN5Cc6ccc7c(C8CCC(=O)NC8=O)noc7c6C5)CC4)nc3)C2(C)C)ccc1C#N` (some centres unmarked) [Compound 11], for which, at AR in VCaP cells, the DC50 was less than 5 nM and the Dmax is more than 75%. In data set [1], this compound displayed a DC50 of less than 500 nM and a maximal degradation (Dmax) of more than 70%. The same compound showed an IC50 in the data set with VCaP cells of less than 2000 nM. Also, the “HLM (human) Remaining amount at 60 min %” value in data set [2] is more than 70%. Further, the “MLM (mouse) Remaining amount at 60 min %” value in data set [3] is more than 70%.
In data set [1], `COc1cc(O[C@H]2C(C)(C)[C@H](NC(=O)c3ccc(N4CCC(CN5CCc6ccc7c(C8CCC(=O)NC8=O)noc7c6C5)CC4)nc3)C2(C)C)ccc1C#N` (some centres unmarked) [Compound 12] displayed a DC50 of less than 500 nM and a Dmax of more than 70%. Moreover, the “HLM (human) Remaining amount at 60 min %” value in data set [2] was more than 70%.
For `COc1cc(O[C@H]2C(C)(C)[C@H](NC(=O)c3ccc(N4CCC(CN5CCc6ccc7c(C8CCC(=O)NC8=O)noc7c6CC5)CC4)nc3)C2(C)C)ccc1C#N` (some centres unmarked) [Compound 13], at AR in VCaP cells, the DC50 is less than 5 nM and the Dmax is more than 75%. In data set [1], the DC50 is less than 500 nM and the Dmax is more than 70%. The compound further came in with a 50% inhibitory concentration (IC50) in the data set with VCaP cells of less than 2000 nM. Moreover, in data set [3], the “MLM (mouse) Remaining amount at 60 min %” value is listed as more than 70%. In the data set “Mouse pharmacokinetics” (setting [4]), this compound gave an area under the curve (AUC) of 6810 ng·h/mL, a Vd of 2 L/kg, a clearance of 2.33 mL/min/kg and a half-life of 9.7 h. For the same compound, in “Mouse pharmacokinetics” (setting [5]), the AUC came to 28000 ng·h/mL, the highest concentration (Cmax) is 1390 ng/mL and the half-life was 8.3 h. Further, the F in the data set “Mouse pharmacokinetics” is recorded as 41.00%.
